Read-outs that look alike come from different tables or passages of the source.
Experiments:
VEGFR-2 = VEGFR-2 (Homo sapiens, UniProt P35968); assay: VEGF stimulated VEGFR-2 autophosphorylation in whole cells; assay type: cell-based
From the text: (§1) The compound of formula 1 is an anti-angiogenic small molecule inhibitor of the tyrosine kinase activity of the vascular endothelial growth factor receptor 2 (VEGFR-2). […] Angiogenesis is necessary for the growth and metastasis of all solid tumors, in that newly formed blood vessels provide nutrients for growing tumors. VEGF is highly overexpressed in a number of tumors. The therapeutic objective of the compound of formula 1 is to inhibit angiogenesis and thereby prevent tumor growth by inhibition of VEGFR-2 tyrosine kinase (TK) activity.

endothelial cell = endothelial cell proliferation; assay type: cell-based
From the text: as §1

[1] = phase 1/2 study with paclitaxel and carboplatin: safety; assay type: in vivo, human patients
Method: (§2) Anti-tumor activity was also assessed.

[2] = hygroscopicity of the salt; assay type: physicochemical; conditions: at 90% relative humidity at ambient temperature
Method: The mixture was then shaken gently with heating at 50° C. for 3 hours and at ambient temperature for 3 days. The solid was filtered, dried under high vacuum to afford a white solid (468 mg, 0.823 mmol, 82%). Melting point 230° C. (DSC). Hygroscopicity: 1% (by weight)) at 90% relative humidity at ambient temperature (RH). Characteristic X-ray powder diffraction peaks (2-theta, [% relative intensity]): 8.623 [90.7], 12.121 [38.9], 17.298 [95.2], 23.397 [44.7], 23.944 [51.7], 24.119 [62.7], 24.873 [55.7], 25.948 [100], and 28.821 [39.6].

[3] = phase 1 single agent study: pharmacokinetic analysis; assay type: in vivo, human patients; conditions: for AUC: 250 mg
Method: A preliminary pharmacokinetic analysis has been performed on the compound of formula 2 concentration data from the patients in the Phase 1 study. In the higher dose cohorts in that study, blood specimens for pharmacokinetics were collected on Day 1 and 15 of Cycle 1 at the following times: just prior to dosing and at 0.5, 1, 2, 4, 6, 8, 12, 16, and 24 hours post-dose. Blood specimens for pharmacokinetics were also collected prior to and 2 hours after dosing on Days 3, 5, and 8 of Cycle 1. […] The 1% value of the cumulative distribution of the data is 2000 ng·hr/mL and the 99% value is 25000 ng·hr/mL. […] For instance, the 99% value for a dose of 300 mg is predicted to be 25000 ng·hr/mL times 1.2 (300 divided by 250) which equals 30000 ng·hr/mL. The 1% value for a dose of 125 mg is predicted to be 2000 ng·hr/mL times 0.5 (125 divided by 250) which equals 1000 ng·hr/mL. Similar calculations provide predictions of the 1% (lower) and 99% (upper) values of the cumulative distribution of 24-hour AUC values for doses of 150 mg, 180 mg, 260 mg, and 280 mg.

[4] = design: species or system human patients; conditions: in vivo
Method: (§3) In a phase 1 study, fifty five (55) patients were treated with the compound of formula 2 as a single agent over a dose range from 35 mg PO (oral dose) for 14 days to 400 mg PO per day continuously. Overall, 25 male and 30 female patients were treated. Patient malignancies include: NSCL (11 patients), renal and urothelial (7 patients), breast (6 patients), colorectal (7 patients), esophageal (3 patients), pancreatic (2 patients), prostate (3 patients), melanoma (2 patients), head and neck (3 patients), soft tissue sarcoma (3 patients), other (8 patients). Forty-two patients had prior chemotherapy. Three patients starting at 300 mg/d had dose reductions to 225 mg/d; 2 reductions were for grade 3 hypertension (HTN), graded by the Common Toxicity Criteria (CTC version 2), occurring between days 15 and 18; 1 additional reduction was as per the patient's request after an episode of hemoptysis in this patient with renal cell carcinoma and lung metastasis. CTC Grade 3 hypertension was initially considered dose limiting at doses of the compound of formula 2 of 300 mg/d, occurring in 2 of 6 patients. Both patients returned to CTC grade 1 or better within 7 days of holding study drug.

[5] = system: patient malignancies (NSCL, renal and urothelial, breast, colorectal, other); assay: phase 1 single agent study: tumor response; assay type: in vivo, human patients; conditions: of 29 patients with tumor response data
Method: as §3
Of the 29 patients for whom tumor response data is available, 9 patients have stable disease beyond 2 cycles (more than 8 weeks) and 2 patients had stable disease beyond 4 cycles (more than 16 weeks).

clinical = conditions: human, plasma, oral
From the text: (§4) With daily (i.e., QD) dosing, the 24-hour AUC value (i.e., the dosing interval AUC value) is a standard measure of systemic exposure to the compound.
(§5) A phase 1/2 study examined the safety and PK of escalating oral QD doses of the hydrochloride salt of the compound of formula 1, viz., the hydrochloride salt of 3-(4-Bromo-2,6-difluoro-benzyloxy)-5-[3-(4-pyrrolidin-1-yl-butyl)-ureido]-isothiazole-4-carboxylic acid amide (i.e., compound of formula 2 shown above), given in combination with paclitaxel (P) (225 mg m^2) and carboplatin (C) (AUC=6) administered in 21 day cycles to chemotherapy naïve patients with PS 0-1 stage IIIb or IV NSCLC with or without stable brain mets and PS 0-1.

stage IIIb or IV NSCLC = assay: phase 1/2 study with paclitaxel and carboplatin: anti-tumor activity; assay type: in vivo, human patients; conditions: 24 patients evaluable for response, with P/C
Method: as §2

[6] = phase 1/2 study with paclitaxel and carboplatin: PK; conditions: doses ≧150 mg QD
From the text: as §4, §5

Chain of VEGFR-2 (P35968 20-1356): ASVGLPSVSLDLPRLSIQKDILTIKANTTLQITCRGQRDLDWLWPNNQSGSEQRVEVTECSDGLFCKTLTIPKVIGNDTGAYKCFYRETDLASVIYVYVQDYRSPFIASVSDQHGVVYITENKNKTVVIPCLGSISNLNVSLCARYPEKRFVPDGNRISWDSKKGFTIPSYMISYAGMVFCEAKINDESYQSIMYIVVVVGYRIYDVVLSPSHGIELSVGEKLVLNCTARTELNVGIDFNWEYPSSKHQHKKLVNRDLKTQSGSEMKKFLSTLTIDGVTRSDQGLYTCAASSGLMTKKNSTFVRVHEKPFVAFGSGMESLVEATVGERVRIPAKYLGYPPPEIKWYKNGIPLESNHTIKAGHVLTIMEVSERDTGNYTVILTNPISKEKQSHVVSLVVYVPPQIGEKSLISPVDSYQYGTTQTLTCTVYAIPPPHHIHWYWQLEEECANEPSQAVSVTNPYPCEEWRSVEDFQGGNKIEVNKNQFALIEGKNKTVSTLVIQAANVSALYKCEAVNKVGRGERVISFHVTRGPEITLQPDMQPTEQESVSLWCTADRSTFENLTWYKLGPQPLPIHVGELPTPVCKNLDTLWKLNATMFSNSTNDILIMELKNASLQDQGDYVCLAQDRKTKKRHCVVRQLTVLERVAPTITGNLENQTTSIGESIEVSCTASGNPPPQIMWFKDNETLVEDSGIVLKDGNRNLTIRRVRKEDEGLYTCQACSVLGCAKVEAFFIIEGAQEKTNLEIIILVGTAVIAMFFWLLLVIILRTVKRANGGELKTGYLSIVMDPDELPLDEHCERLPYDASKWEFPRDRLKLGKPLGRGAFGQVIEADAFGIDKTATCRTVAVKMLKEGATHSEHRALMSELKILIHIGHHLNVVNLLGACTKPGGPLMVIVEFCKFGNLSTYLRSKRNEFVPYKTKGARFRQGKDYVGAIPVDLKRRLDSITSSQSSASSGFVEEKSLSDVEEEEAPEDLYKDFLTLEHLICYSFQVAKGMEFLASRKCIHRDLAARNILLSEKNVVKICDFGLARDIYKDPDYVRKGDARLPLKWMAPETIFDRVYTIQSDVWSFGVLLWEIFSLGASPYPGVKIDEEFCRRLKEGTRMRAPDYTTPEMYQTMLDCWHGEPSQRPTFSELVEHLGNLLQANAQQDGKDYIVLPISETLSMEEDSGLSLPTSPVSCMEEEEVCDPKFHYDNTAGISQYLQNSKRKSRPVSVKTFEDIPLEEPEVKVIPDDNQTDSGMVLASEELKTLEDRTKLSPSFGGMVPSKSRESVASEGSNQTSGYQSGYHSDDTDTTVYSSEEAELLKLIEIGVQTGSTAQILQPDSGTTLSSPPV

With `NC(=O)c1c(OCc2c(F)cc(Br)cc2F)nsc1NC(=O)NCCCCN1CCCC1` [compound of formula 1] the “inhibition of VEGF stimulated VEGFR-2 autophosphorylation” value (VEGFR-2) was “inhibits VEGF stimulated VEGFR-2 autophosphorylation in whole cells” and the “inhibition of endothelial cell proliferation” value (endothelial cell) was “inhibits endothelial cell proliferation”.

In the case of `Cl.NC(=O)c1c(OCc2c(F)cc(Br)cc2F)nsc1NC(=O)NCCCCN1CCCC1` [compound of formula 2], the “most common treatment emergent adverse events” value ([1]; in vivo) is reported as “diarrhea, fatigue, nausea, neuropathy, emesis, alopecia, dyspnea and arthralgia/myalgia”, the “safety of combination with standard doses of P/C” value ([1]; in vivo, po) is reported as “can be safely combined with standard doses of P/C” and the maximum tolerable dose ([1]; oral QD with paclitaxel 225 mg/m2 and carboplatin AUC=6, 21 day cycles, NSCLC patients) is reported as 200 mg/day. The Hygroscopicity [2] was 1 % (by weight), the “drug concentrations versus predicted efficacious concentrations” value ([3]; 250 mg daily dose) was “consistently above the lowest predicted human efficacious concentrations” and the “24-hour AUC, predicted 1% value of the cumulative distribution” value ([3]; dose of 125 mg, assuming dose proportionality) was 1000 ng·h/mL. For the same molecule, the “24-hour AUC, predicted 99% value of the cumulative distribution” value ([3]; dose of 300 mg, assuming dose proportionality) was 30000 ng·h/mL, the AUC ([3]; human, plasma, oral, 250 mg QD, 19 patients, log-normal distribution, read-out: 24-hour AUC, geometric mean) was 7260 ng·h/mL and the AUC ([3]; human, plasma, oral, 250 mg QD, 19 patients, read-out: 24-hour AUC values, range) was 2880 to 18700 ng·h/mL. It also gave an AUC ([3]; human, plasma, oral, 250 mg QD, 19 patients, read-out: 24-hour AUC, 1% value of the cumulative distribution) of 2000 ng·h/mL, an AUC ([3]; human, plasma, oral, 250 mg QD, 19 patients, read-out: 24-hour AUC, 99% value of the cumulative distribution) of 25000 ng·h/mL and a Cmax ([3]; human, plasma, oral, 250 mg QD, 19 patients, standard deviation 240 ng/mL, read-out: mean Cmax (maximum observed plasma concentration)) of 457 ng/mL. For the same molecule, the “CTC Grade 3 hypertension (initially considered dose limiting)” value ([4]; both, human) was 2 of 6, the “dermatologic events reported by more than one patient” value ([4]; both, human) was “grade 2 venostasis rash, which occurred in cycle 2, and grade 1 pallor and shingles” and the “events in patient dose reduced from 400 mg to 350 mg” value ([4]; both, human) was “grade 3 fatigue”. The “patients with dose limiting toxicities” value ([4]; both, human) was “None of the 4”, the “patients with dose limiting toxicity” value ([4]; both, human) was 1 of 10 and the “recommended Phase 2 single agent dose” value ([4]; both, human) was 250 mg. The “reports of grade 3 diarrhea” value ([4]; both, human) was 3 reports, the maximum administered dose ([4]; both, human, po) was 400 mg and the “events in patient further dose reduced to 300 mg” value [4] was “severe renal hemorrhage, alveolar hemorrhage and gastrointestinal hemorrhage”. For the same molecule, the “other gastrointestinal adverse events occurring in 2 or more patients” value [4] was “nausea, taste disturbance, anorexia and mouth dryness”, the “patients with stable disease beyond 2 cycles (more than 8 weeks)” value [5] was 9 patients and the “patients with stable disease beyond 4 cycles (more than 16 weeks)” value [5] was 2 patients. It also gave a half-life (clinical) of about 32 h, an objective response rate (stage IIIb or IV NSCLC) of 20% and a progressive disease rate (stage IIIb or IV NSCLC) of 33%. The plasma concentrations achieved [6] was “within the range associated with anti-angiogenesis in preclinical models”.

From patent US20050234115A1, “Dosage forms and methods of treatment using VEGFR inhibitors” (Pfizer Inc., priority 2004, published 2005)
